In paper PMC12463120, “Phenylalanine‐Based DNA‐Encoded Chemical Libraries for the Discovery of Potent and Selective Small Organic Ligands Against Markers of Cancer and Immune Cells” (Advanced Science, 2025):

Assays:
human CAIX (hCAIX) = target: T1, human CAIX (hCAIX) (Homo sapiens, UniProt Q16790); assay: Fluorescence polarization (FP) affinity against hCAIX; format: binding; settings: fluorescein derivatives
T1 construct: made in house; host or cells: CHO cells
Description: A dilution series of target proteins (i.e., PSMA, GCP3, CAIX, CAII) in the respective formulation buffer were separately prepared in a black 384-well plate (non-binding Greiner small volume plate). Test compounds functionalized with fluorescein were diluted to a concentration between 5 and 10 nM (5 μL) and incubated for 15 min with the protein (final volume corresponding to 10 µL). The fluorophore was excited at 485 nm, and anisotropy was measured at 535 nm on a Spectra Max Paradigm multimode plate reader (Tecan). The experiments were performed in triplicate. KD values measured using this FP method can differ from dissociation constants obtained by other physical methods (e.g., surface plasmon resonance, see section below).

murine CAIX (mCAIX) = murine CAIX (mCAIX) (Mus musculus, UniProt Q8VHB5); assay: Fluorescence polarization (FP) affinity against mCAIX; format: binding
murine CAIX (mCAIX), sequence (Q8VHB5 32-437): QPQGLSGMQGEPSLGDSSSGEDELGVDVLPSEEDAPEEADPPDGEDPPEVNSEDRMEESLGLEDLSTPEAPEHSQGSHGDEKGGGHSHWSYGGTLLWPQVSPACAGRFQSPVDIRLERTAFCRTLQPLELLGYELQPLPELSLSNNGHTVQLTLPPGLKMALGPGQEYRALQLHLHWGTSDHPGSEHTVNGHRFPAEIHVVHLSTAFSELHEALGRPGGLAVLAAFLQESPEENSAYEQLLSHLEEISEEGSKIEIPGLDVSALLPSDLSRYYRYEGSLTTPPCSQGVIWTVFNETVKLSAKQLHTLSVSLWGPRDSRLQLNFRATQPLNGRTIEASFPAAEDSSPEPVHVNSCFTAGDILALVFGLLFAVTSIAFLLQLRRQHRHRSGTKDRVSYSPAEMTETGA
Description: (§1) Selection results were decoded with C++^[ [61] ^] and visualized using MATLAB R2019b (MathWorks). EFs were calculated by dividing the DNA sequence counts for each hit compound by the average DNA sequence count from the corresponding DEL screening. Additionally, Z‐score values were calculated following methods previously published,^[ [60] ^] as present in Supporting Information. Hit compounds with high EFs in the target protein selections and low EFs in the negative controls (anti‐target and streptavidin selections) were selected for hit validation activities. All compounds were synthesized using either solid‐phase peptide synthesis or solution‐phase methodologies. Affinities of fluorescein‐bearing hits were determined by FP or ELISA measurements. […] Binding kinetics were assessed on a Biacore X100 instrument with the target protein immobilized on a CM5 chip at 4′000 RUs. Cell binding of fluorescent ligands was evaluated using flow cytometry against antigen‐positive and antigen‐negative (wild‐type) cancer cells. in vitro tissue uptake of ^177Lu‐labelled DOTAGA PSMA‐radioligands was measured via autoradiography. […]
(§2) Protein dissolved in PBS or HEPES buffer was incubated for 30-60 min with 5 equiv. of EZ-LinkTM NHS-LC-Biotin (Thermo Fisher Scientific, #21336). […] The fractions were measured (absorption at 280 nm) on a Nanodrop 2000 Spectrophotometer to combine protein-containing fractions. […]

bovine CAII (bCAII) = bovine CAII (bCAII) (Bos taurus, UniProt P00921); assay: Fluorescence polarization (FP) affinity against bCAII; format: binding
bovine CAII (bCAII), sequence (P00921 whole entry): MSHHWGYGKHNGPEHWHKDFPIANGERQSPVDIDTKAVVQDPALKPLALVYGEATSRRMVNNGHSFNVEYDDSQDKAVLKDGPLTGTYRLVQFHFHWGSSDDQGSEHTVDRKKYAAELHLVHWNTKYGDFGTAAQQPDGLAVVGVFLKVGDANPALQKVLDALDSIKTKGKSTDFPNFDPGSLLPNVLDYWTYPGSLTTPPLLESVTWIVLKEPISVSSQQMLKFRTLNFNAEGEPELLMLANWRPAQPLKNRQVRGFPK
Description: as §1, §2

[1] = test system: SK-RC-52 renal cell carcinoma cells; assay: Flow cytometry on SK-RC-52 cells; format: cell-based; settings: 100 nM
PSMA [2] = target: T2, PSMA (Homo sapiens, UniProt Q04609); assay: Fluorescence polarization (FP) affinity against PSMA; format: binding; settings: fluoresceinated compounds
T2 construct: Avi-tag; made in house; host or cells: CHO cells
T2 sequence (Q04609 whole entry): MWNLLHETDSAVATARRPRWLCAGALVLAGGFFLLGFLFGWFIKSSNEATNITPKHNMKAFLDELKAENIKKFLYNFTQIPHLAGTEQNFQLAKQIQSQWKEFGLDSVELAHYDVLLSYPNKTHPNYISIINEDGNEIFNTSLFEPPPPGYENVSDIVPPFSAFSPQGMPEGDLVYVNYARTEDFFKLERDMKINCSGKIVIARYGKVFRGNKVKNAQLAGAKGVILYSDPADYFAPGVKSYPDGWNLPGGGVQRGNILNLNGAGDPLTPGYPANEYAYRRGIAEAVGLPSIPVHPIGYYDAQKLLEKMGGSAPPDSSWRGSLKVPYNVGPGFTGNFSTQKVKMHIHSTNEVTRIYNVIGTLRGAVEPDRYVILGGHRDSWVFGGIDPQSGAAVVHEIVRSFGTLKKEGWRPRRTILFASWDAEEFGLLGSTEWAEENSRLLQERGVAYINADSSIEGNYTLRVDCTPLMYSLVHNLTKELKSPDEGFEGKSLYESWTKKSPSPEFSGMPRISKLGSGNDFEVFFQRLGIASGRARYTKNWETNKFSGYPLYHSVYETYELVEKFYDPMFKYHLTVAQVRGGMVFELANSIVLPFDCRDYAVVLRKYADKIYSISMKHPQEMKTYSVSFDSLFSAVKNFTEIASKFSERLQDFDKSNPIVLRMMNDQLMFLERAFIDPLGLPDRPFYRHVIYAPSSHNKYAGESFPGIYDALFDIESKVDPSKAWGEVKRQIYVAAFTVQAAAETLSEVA
Description: Hits obtained from FM‐DEL1 (A1452 and A3113) and FM‐DEL2 (A3113/B423) were re‐synthesized as stereo‐chemically pure off‐DNA compounds derivatized with a C6 linker featuring a fluorescein moiety (coupled to fluorescein isothiocyanate‐FITC) (compounds 1–6) [Figure 2E]. The binding affinity against PSMA and GCP3 (KD) of fluoresceinated compounds 1–6 was measured by fluorescence polarization (FP). […] The superiority of compound 5 (S‐configuration) in binding PSMA over compound 6 (R‐configuration) was confirmed by molecular docking studies [Figure S48, Supporting Information]. […] The presence of the sole building block A3113 on the 3‐iodo‐phenylalanine scaffold in the S‐configuration gives adequate selectivity for PSMA over GCP3. The addition of the second building block (B423) enhances both affinity and selectivity for the target.
as §1, with “Hit compounds with high EFs in the target protein selections and low EFs in the negative controls (anti‐target and streptavidin selections) were selected for hit validation activities. All compounds were synthesized using either solid‐phase peptide synthesis or solution‐phase methodologies.” left out
(§3) The protein was then concentrated using Vivaspin® 20 centrifugal concentrators (30’000 Da molecular weight cutoff, Sartorius, #VS2012) and then purified by SEC or PD-10 column. The fractions were measured (absorption at 280 nm) on a Nanodrop 2000 Spectrophotometer to combine protein-containing fractions. […]
(§4) 2.11 Fluorescence polarization (FP) measurements with fluoresceine-labelled […]

PSMA [3] = target: T2, PSMA; assay: Size-exclusion chromatography co-elution with PSMA; format: binding; settings: recombinant PSMA vs GCP3
Description: as §1, §2

[4] = test system: HT-1080.hPSMA tumor cells; assay: Flow cytometry on HT-1080.hPSMA cells; format: cell-based; settings: 250 nM
Description: (§5) Selection results were decoded with C++^[ [61] ^] and visualized using MATLAB R2019b (MathWorks). EFs were calculated by dividing the DNA sequence counts for each hit compound by the average DNA sequence count from the corresponding DEL screening. Additionally, Z‐score values were calculated following methods previously published,^[ [60] ^] as present in Supporting Information. Hit compounds with high EFs in the target protein selections and low EFs in the negative controls (anti‐target and streptavidin selections) were selected for hit validation activities. All compounds were synthesized using either solid‐phase peptide synthesis or solution‐phase methodologies. Affinities of fluorescein‐bearing hits were determined by FP or ELISA measurements. […] ACP3 colorimetric inhibition assay was performed with serially diluted compounds at a fixed concentration (5 mM in PBS) of para‐nitrophenyl phosphate as substrate. Binding kinetics were assessed on a Biacore X100 instrument with the target protein immobilized on a CM5 chip at 4′000 RUs. Cell binding of fluorescent ligands was evaluated using flow cytometry against antigen‐positive and antigen‐negative (wild‐type) cancer cells. in vitro tissue uptake of ^177Lu‐labelled DOTAGA PSMA‐radioligands was measured via autoradiography. Prism 9 software (GraphPad Software) was used for data analysis of FP, ELISA, PD‐10, SPR, and enzymatic assay measurements. SPR sensograms were fitted with the Biacore X100 Evaluation Software. Flow cytometry data was processed with the FlowJo 10.4 software.
HT1080.hPSMA and PC3.hACP3 cell lines were generated by lentiviral transduction on wild type cells (HT1080.wt and PC3.wt), according to published procedures9. […]
Cancer cells were detached with an Accutase® cell detachment solution, resuspended in a standard culture medium, and transferred to falcon tubes. Cells were counted and centrifuged at 400 rcf for 3 min. […] Data were acquired halting the measurement at 10´ 000 events on a Cytoflex S flow cytometer (Beckman Coulter), and analyzed using the FlowJo software v10 (BD Biosciences). […]

recombinant human ACP3 = target: T3, recombinant human ACP3 (Homo sapiens, UniProt P15309); assay: Fluorescence polarization (FP) affinity against human ACP3; format: binding; settings: PSMA ligands as negative controls
T3 construct: made in house; host or cells: CHO cells
T3 sequence (P15309 33-386): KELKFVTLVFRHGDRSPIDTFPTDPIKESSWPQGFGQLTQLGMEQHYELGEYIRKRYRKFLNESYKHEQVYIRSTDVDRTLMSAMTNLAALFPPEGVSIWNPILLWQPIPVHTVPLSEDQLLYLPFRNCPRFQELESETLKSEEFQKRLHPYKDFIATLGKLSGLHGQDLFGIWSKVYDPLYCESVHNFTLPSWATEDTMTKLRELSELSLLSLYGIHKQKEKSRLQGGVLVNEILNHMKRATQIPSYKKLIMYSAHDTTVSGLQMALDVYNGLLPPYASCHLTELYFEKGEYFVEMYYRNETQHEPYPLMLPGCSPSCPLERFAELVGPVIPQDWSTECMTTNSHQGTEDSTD
Description: as §5, with “SPR sensograms were fitted with the Biacore X100 Evaluation Software. Flow cytometry data was processed with the FlowJo 10.4 software.” left out
as §3, §2, §4

SMILES | Kd (human CAIX (hCAIX)) | Kd (murine CAIX (mCAIX)) | Kd (bovine CAII (bCAII)) | binding to CAIX on the cell surface by flow cytometry [1] | Kd (PSMA [2]) | co-elution with PSMA in size-exclusion chromatography (PSMA [3]) | binding to PSMA on the cell surface by flow cytometry [4] | binding to human ACP3 by FP (recombinant human ACP3)
NS(=O)(=O)c1ccc(-c2cccc(C[C@@H](NC(=O)CCC(=O)N[C@@H](CCCCNC(=S)Nc3ccc4c(c3)C(=O)OC43c4ccc(O)cc4Oc4cc(O)ccc43)C(=O)O)C(=O)NCC3(c4cccs4)CCOCC3)c2)cc1 [compound 21] | 0.95 nM | 8.73 nM | 150 nM | bound to the antigen expressed on the surface of cancer cells | – | – | – | –
CCOc1ccccc1-c1cccc(C[C@H](NC(=O)N[C@@H](CCC(=O)O)C(=O)O)C(=O)NCCCCCCNC(=S)Nc2ccc3c(c2)C(=O)OC32c3ccc(O)cc3Oc3cc(O)ccc32)c1 [compound 5] | – | – | – | – | 13 nM | selective and kinetically stable interaction with PSMA | able to bind to the antigen expressed on the tumor cell surface | did not bind
